Source: ChEMBL document CHEMBL3872282, “Dithiocarbamates effectively inhibit the β-carbonic anhydrase from the dandruff-producing fungus Malassezia globosa” (Bioorg Med Chem, 2017)

experiment: Inhibition of Malassezia globosa beta-carbonic anhydrase preincubated for 15 mins prior to testing by phenol red-based stopped-flow CO2 hydration assay

| Ki [nM] | Structure (SMILES) |
| --- | --- |
| 2400 | O=C(O)C1CCCCN1C(=S)S (configuration not stated) |
| 383 | OCCCCCNC(=S)S |
| 678 | OC1CCCN(C(=S)S)C1 (configuration not stated) |
| 718 | O=C(O)C1CCCN(C(=S)S)C1 (configuration not stated) |
| 577 | O=C(O)[C@@H]1CCCN(C(=S)S)C1 |
| 929 | O=C(O)[C@H]1CCCN(C(=S)S)C1 |
| 556 | O=C(O)C1CCN(C(=S)S)CC1 |
| 660 | CC1COCCN1C(=S)S (configuration not stated) |
| 4740 | O=C(O)C1COCCN1C(=S)S (configuration not stated) |
| 801 | O=C(CN1CCN(C(=S)S)CC1)NC1CCCCC1 |
| 4620 | S=C(S)NCCc1ccccc1 |
| 914 | NS(=O)(=O)c1ccc(CCNC(=S)S)cc1 |
| 6240 | OCCCCNC(=S)S |
| 644 | CC(C)(C)OC(=O)NC1CCCN(C(=S)S)C1 (configuration not stated) |
| 3190 | OCCCNC(=S)S |
| 885 | CC(=O)NC1CCCN(C(=S)S)C1 (configuration not stated) |
| 2980 | CN(C)CCNC(=S)S |

| Structure (SMILES) | Ki [nM] |
| --- | --- |
| S=C(S)N[C@H]1CN2CCC1CC2 | 490 |
| S=C(S)N[C@@H]1CN2CCC1CC2 | 724 |
| S=C(S)N1CCCCC1 | 773 |
| S=C(S)NC1CN2CCC1CC2 (racemic) | 643 |
| CC(=O)Nc1nnc(S(N)(=O)=O)s1 [ACETAZOLAMIDE] | 74000 |
